Where no end group is shown, it is not given here.
How the values were obtained:
[1] = tested on: rat insulin I gene promoter in βTC-1 cells; test: CAT activity in cells transiently transfected with −410 Ins-CAT plasmid; assay type: cell-based, mouse; conditions: 24 hours
Description: Cells of two 80–90% confluent 150 mm culture plates were trypsinized and transfected in solution in one tube with 15 μg of indicator plasmid using the DEAE-dextran method. The plasmid contained 410 bp of the rat insulin I gene promoter fused to the transcriptional reporter gene encoding the bacterial enzyme chloramphenicol-acetyltransferase (CAT). […] Subsequently cells were plated into 18 wells of six well plates. […] Thereby, differences in transfection deficiencies reflected in CAT activities were normalized against protein concentrations as well as the respective control experiments. After transfection cells were incubated in RPMI 1640 supplemented with 0.1% human serum albumin and 0.1% bacitracin. […] After extraction with ethylacetate (1 ml) acetylated and non-acetylated ^14C-chloramphenicol were separated by thin-layer chromatography (chloroform:methanol 9:1), identified by autoradiography and the respective spots were scraped from the plates and radioactivity was counted in a scintillation counter.

[2] = tested on: βTC-1 cells; test: Cellular insulin content by radioimmunoassay; assay type: cell-based, mouse; conditions: 24 hours
Description: Two days before the experiment commenced, cells were plated into 35 mm plates. Media were changed to RPMI 1640 supplemented with 0.1% human serum albumin and 0.1% bacitracin. […] After incubation for 24 hours under these conditions, cells were washed three times with PBS and harvested in 1.5 ml buffer containing 150 mM NaCl, 1 mM EDTA and 40 mM Tris/Cl pH 7.4 and resuspended in 200 μl PBS. Fifty μl of this cell suspension were resuspended in 1 ml 1 M acetic acid and extracted for 16 hours at 4° C. Aliquots (2 and 20 μl) were lyophilized and reconstituted in insulin-RIA buffer. The cell number of each plate was controlled by determination of total protein in the initial cell lysate. […] Insulin was measured with a radioimmunoassay system using an antiserum raised in rabbits against pork insulin and pork insulin as the standard. […] Data are presented as fold-increase of insulin content per well above the control experiments (no treatment).

[3] = tested on: βTC-1 cells; test: Proinsulin biosynthesis ([3H]leucine labelling); assay type: cell-based, mouse; conditions: 6 hours labeling
Description: βTC-1 cells (Efrat et al., Proc. Natl. Acad. Sci. (USA) 85:9037–9041 (1988)) were grown in a humidified atmosphere at 37° C. in RPMI 1640 medium supplemented with 10% (vol/vol) fetal bovine serum, 5% (vol/vol) horse serum, 100 U/ml penicillin and 100 μg/ml streptomycin. Media were changed after three days and cells were split 1:3 after six days.
βTC-1 cells were plated into 35 mm plates and grown for two days to reach 80–90% confluency. During a 6 hour labeling period cells were incubated in 1 ml RPMI 1640 supplemented with 0.1% human serum albumin, 0.1% bacitracin and 50 μCi[^3H]leucine. Forskolin, IBMX, 8-Bromo-cAMP and GLP-1(7-37) were added from stock solutions as described (see “cell transfection”). Cells were harvested in PBS and lysed by three freeze-thaw cycles. Immunoreactive proinsulin was precipitated with an antiserum raised in rabbits against pork insulin that was coupled to a 10% suspension of bacterial lysates (Saureus) containing protein A. Radioactivity contained in the resulting pellets was counted using a lliquid scintillation counter. Incorporation of [^3H]leucine into total protein was measured in trichloroacetic acid precipitates of the cells. None of the agents tested had any effects on [^3H]leucine incorporation into TCA precipitable proteins. Data are expressed as fold-induction of proinsulin biosynthesis above those in the control experiments (no treatment).

[4] = tested on: rat pancreas; test: Pancreatic perfusion assay of insulinotropic activity (effluent insulin); assay type: in vivo; conditions: for Insulinotropic activity: 10^−11 M, five minute perfusions, FIG. 4; for Insulinotropic activity (perfusate insulin): Table 6; for Mean perfusate insulin concentration: 10^−9 M for 5 minutes
Description: The in situ isolated perfused rat pancreas preparation was a modification of the method of Penhos, J. C., el al. (Diabetes 18:733–738 (1969)). In accordance with such a method, fasted rats (preferably male Charles River strain albino rats), weighing 350–600 g, are anesthetized with an intraperitoneal injection of Amytal Sodium (Eli Lilly and Co., 160 ng/kg). Renal, adrenal, gastric, and lower colonic blood vessels are ligated. The entire intestine is resected except for about four cm of duodenum and the descending colon and rectum. […] The perfusate is preferably a modified Krebs-Ringer bicarbonate buffer with 4% dextran T70 and 0.2% bovine serum albumin (fraction V), and is preferably bubbled with 95% O2 and 5% CO2. A nonpulsatile flow, four-channel roller-bearing pump (Buchler polystatic, Buchler Instruments Division, Nuclear-Chicago Corp.) is preferably used, and a switch from one perfusate source to another is preferably accomplished by switching a three-way stopcock.
Isolated rat pancreas was prepared according to the method of Weir, G. C., et al., (J. Clin. Invest. 54:1403–1412 (1974)), and Penkos, J. C., et al. (Diabetes 18:733–738 (1969)). The perfusate contained bicarbonate buffer (pH 7.4) and 120 mg/dl glucose, 4% dextran T-70, and 0.2% bovine serum albumin, and was equilibrated with 95% oxygen and 5% carbon dioxide. The first 20 minutes of each perfusion was an equilibrium period. After this initial period, aliquots of perfusate were removed every 2–4 min for additional 20 min, thus allowing the system to equilibrate for a total of 40 min. The perfusion, including any added insulinotropic peptide, was for 6 min and samples were collected at 1-min intervals. When more than one perfusion was to be performed, the peptide perfusions were followed by equilibration periods of 20 min, during which four samples 5 min apart were collected. […] Again, samples 1 min apart were collected. The entire perfusion time was between 70 and 85 min.
In each aliquot of perfusate obtained, insulin was determined by radioimmunoassay. […] At one minute intervals, pancreas effluent insulin levels in picograms/ml were determined by radioimmunoassay (as described above).

[5] = tested on: RIN 1046-38 cells; test: cAMP formation in insulinoma cell line; assay type: cell-based, rat; conditions: for Effect on cAMP levels: 0.5 μM; for Effects on the formation of cAMP: at 5 nM and 50 pM
Description: Cells were grown as described in Example 1, in […] culture dishes. Varying amounts of glucagon-like peptides were added to culture wells in triplicate. […] Twenty microliters from each culture well was assayed.
Insulinotropic activity was monitored as described by Mojsov, S., et al., (J. Clin. Invest. 79:616–619 (1987)) and Drucker, D. J., et al., (Proc. Natl Acad. Sci. 84:3434–3438 (1987)), both of which references are incorporated by reference herein. […]

[6] = tested on: RIN 1046-38 cells; test: Levels of insulin, actin and angiotensinogen mRNAs by Northern blot densitometry; assay type: cell-based, rat
Description: Rat insulinoma cells of cell line RIN-38 were derived from a continuous islet cell line, RIN-r, which was established from a transplantable rat islet cell tumor (Gazdar, A. F., et al., Proc. Natl. Acad. Sci., USA 77:3519–3523 (1980)). The cells were maintained in DMEM (Gibco) at a glucose concentration of 4,500 mg/L and supplemented with 10% heat-inactivated fetal bovine serum (Gibco), 100 U/ml of penicillin and 100 μg/ml of streptomycin. Incubations were carried out at 37° C. in 95% air:5% CO2. Cells grown in the above manner were washed and resuspended in DMEM (Gibco) containing 0.1% bovine serum albumin and 25 mM glucose. […] Incubations were for six hours.
Messenger RNAs specific for insulin, actin, or angiotensinogen were identified by Northern hybridization as follows: cellular RNA was extracted from solid tumors and cells by homogenization in guanidine thiocyanate and sedimentation through a cesium chloride cushion. Poly A^+ RNA was isolated by oligo dT cellulose chromatography (Aviv, H., et al., Proc. Natl. Acad. Sci., USA 69:1408–1412 (1972)). Twenty micrograms of total RNA from each sample were fractionated by size on a 1.4% agarose gel after denaturation in glyoxal, followed by electrotransfer to a nylon membrane (Nytran; Schleicher and Schuell). Blotted membranes were baked for two hours at 80° C. under vacuum, prehybridized in 1M NaCl/1% SDS/10% Dextran sulfate at 50° C. overnight and hybridized at the same temperature for 24 h after addition of the labeled probes (3–5×10^5 cpm/ml); they were then washed at 55° C. twice in 1×SCC (0.15M NaCl/0.015 M Na citrate)/1% SDS), and exposed to X-ray film for varying times at −70° C. with an intensifying screen. The relative amounts of the specific mRNA were determined by microdensitometry.

[7] = target: receptor involved in the recognition of glucagon; test: cell-based or functional assay
[8] = target: cellular receptors; test: cell-based or functional assay

## C=C[C@@]1(C)CC(=O)[C@]2(O)[C@@]3(C)[C@@H](O)CCC(C)(C)[C@@H]3[C@H](O)[C@H](OC(C)=O)[C@@]2(C)O1 [Forskolin, forskolin]
[1]; 10 μM
  Increase of CAT activity: 3.3±0.57 fold
[2]; 10 μM
  Increase of total cellular insulin content: 1.49±0.18 fold
[3]; 10 μM
  Increase of proinsulin biosynthesis: 1.53±0.06 fold

## CC(C)Cn1c(=O)n(C)c(=O)c2[nH]cnc21 [IBMX]
[1]; 0.5 mM
  Increase of CAT activity: 2.6±0.16 fold
[2]; 0.5 mM
  Increase of total cellular insulin content: 1.30±0.12 fold
[3]; 0.5 mM
  Increase of proinsulin biosynthesis: 1.53±0.06 fold

## GLP-1(7-34): derivative of GLP-1(1-37), amino acids 7-34 (HAEGTFTSDVSSYLEGQAAKEFIAWLVK; Glucagon-like peptide 1; UniProt P01275 98-125, looked up, fragment)
[4]
  Insulinotropic activity: detectable insulinotropic activity

## GLP-1(7-35): derivative of GLP-1(1-37), amino acids 7-35 (HAEGTFTSDVSSYLEGQAAKEFIAWLVKG; Glucagon-like peptide 1; UniProt P01275 98-126, looked up, fragment)
[4]
  Insulinotropic activity: detectable insulinotropic activity

## GLP-1(7-36)-NH2: GLP-1(7-36) with the C-terminal residue, arginine, in amidated form as arginineamide
[4]; time +1 minute
  Insulinotropic activity (perfusate insulin): 4550 ± 703
[4]; time +2 minutes
  Insulinotropic activity (perfusate insulin): 3330 ± 637
[4]; time +3 minutes
  Insulinotropic activity (perfusate insulin): 2500 ± 564
[4]; time −1 minute (before peptide), 5 minute perfusion
  Insulinotropic activity (perfusate insulin): 985 ± 275
[4]; perfused rat pancreas
  Potency as secretagogue, 7-37 form versus 7-36-amide: equally potent secretagogues
[5]; IBMX 100 uM, peptide 10^−7 M
  cAMP formation: 358 ± 32 fmoles/10 ul of cell extract
[5]; IBMX 100 uM, peptide 10^−9 M
  cAMP formation: 225 ± 16 fmoles/10 ul of cell extract
[5]; IBMX 100 uM, peptide 10^−11 M, 10 minutes, control 161 ± 10
  cAMP formation: 141 ± 5 fmoles/10 ul of cell extract
[5]; IBMX 500 uM, peptide 10^−7 M
  cAMP formation: 1676 ± 113 fmoles/10 ul of cell extract
[5]; IBMX 500 uM, peptide 10^−9 M
  cAMP formation: 1199 ± 41 fmoles/10 ul of cell extract
[5]; IBMX 500 uM, peptide 10^−11 M, control 540 ± 22
  cAMP formation: 446 ± 38 fmoles/10 ul of cell extract

## GLP-1-(1-36)-NH2: GLP-1(1-36 des-gly-arg amide); Peninsula Laboratories (HDEFERHAEGTFTSDVSSYLEGQAAKEFIAWLVKGR-NH2; UniProt P01275 92-127, looked up, fragment)
[6]; Experiment 1, peptide 5 × 10^−7 M, control 0.68 ± 0.03
  Actin mRNA level: 0.87 ± 0.19 Arbitrary densitometric units
[6]; Experiment 1, peptide 5 × 10^−7 M, control 1.28 ± 0.18, mean ± SEM
  Insulin mRNA level: 2.78 ± 0.51^4 Arbitrary densitometric units
[6]; Experiment 1, peptide 5 × 10^−7 M, control 2.67 ± 0.31
  Angiotensinogen mRNA level: 2.56 ± 0.22 Arbitrary densitometric units
[5]
  Effect on cAMP levels: increased cAMP levels
  Effects on the formation of cAMP: negligible
[5]; Exp. 4, 5 × 10^−7 M, control 41.3 ± 7.1
  cAMP: 70.2 ± 2.8 (b) fmol

## GLP-2: glucagon-like peptide 2, 34 amino acid residues long
[6]
  Effects on insulin mRNA levels: no effects
[5]; even at 10^−11 M
  Stimulation of cAMP levels: neither GLP-1(1-37) nor GLP-2 (GLP-2) exhibited such activity

## His-Ala-Glu-Gly-Thr-Phe-Thr-Ser-Asp-Val-Ser-Ser-Tyr-Leu-Glu-Gly-Gln-Ala-Ala-Lys-Glu-Phe-Ile-Ala-Trp-Leu-Val-Lys-Gly-Arg (HAEGTFTSDVSSYLEGQAAKEFIAWLVKGR; printed: His-Ala-Glu-Gly-Thr-Phe-Thr-Ser-Asp-Val-Ser-Ser-Tyr-Leu-Glu-Gly-Gln-Ala-Ala-Lys-Glu-Phe-Ile-Ala-Trp-Leu-Val-Lys-Gly-Arg) [GLP-1(7-36), GLP-1 polypeptide having all amino acids from number 7 through number 36]
[4]; 10^−11M
  Insulinotropic activity compared with GLP-1(7-37): equiavlent to GLP-1(7-37)

## des-7 histidine GLP-1(7-37) (AEGTFTSDVSSYLEGQAAKEFIAWLVKGRG) [GLP-1 (8-37)]
[4]; perfusate glucose 6.6 mM, 10^−7 M
  Effect on insulin secretion: weak insulinotropic activity
[4]; perfusate glucose 6.6 mM, 10^−11, 10^−9, or 10^−8 M
  Effect on insulin secretion: no detectable effect
[4]; perfusate glucose 16.7 mM, 10^−9 M
  Effect on insulin secretion: no effect
[5]; Table 8, 10^−5 M
  cAMP formation: 77 ± 11 f-mole/5 ul of cell extract/15 min exposure to peptide
[5]; Table 8, 10^−6 M
  cAMP formation: 31 ± 3 f-mole/5 ul of cell extract/15 min exposure to peptide
[5]; Table 8, 10^−7 M
  cAMP formation: 24 ± 2 f-mole/5 ul of cell extract/15 min exposure to peptide
[5]; Table 8, 10^−8 M, no peptide 27 ± 2, mean ± S.E.M.
  cAMP formation: 28 ± 0.8 f-mole/5 ul of cell extract/15 min exposure to peptide
[5]; cAMP formation
  Insulinotropic activity compared with glucagon: comparable to that of glucagon

## glucagon
[6]
  Effects on insulin mRNA levels: no effects
[4]; glucose 6.6 mM, absence of GLP-1 (8-37)
  Mean perfusate insulin concentration: 4.98 ± 0.96 ng/mL
[4]; glucose 6.6 mM, presence of 10^−8 M GLP-1 (8-37), N=4
  Mean perfusate insulin concentration: 5.26 ± 0.89 ng/mL
[4]; 10^−9 M, glucose 6.6 mM
  Peak insulin release: 4.5 ± 0.5 ng/mL
[4]; 10^−11M
  Insulin release: no release
[4]; pancreatic B cell secretagogue
  Concentration at which an insulinotropic effect is still mediated (as low as): 10^−9 M
[5]
  Effect on cAMP levels: increased cAMP levels
  Effects on the formation of cAMP: negligible
[5]; Exp. 1, 5 × 10^−9 M
  cAMP: 20.1 ± 2.5 (a) fmol
[5]; Exp. 1, 5 × 10^−10 M
  cAMP: 16.5 ± 2.0 (NS) fmol
[5]; Exp. 1, 5 × 10^−11 M
  cAMP: 13.2 ± 1.0 (NS) fmol
[5]; Exp. 1, 5 × 10^−12 M, per 1/50th of cell extract per plate, control 15.4 ± 0.7, mean ± SEM
  cAMP: 18.7 ± 2.2 (NS) fmol
[5]; Exp. 2, 5 × 10^−7 M
  cAMP: 93.1 ± 2.9 (c) fmol
[5]; Exp. 2, 5 × 10^−8 M, control 43.6 ± 4.1
  cAMP: 44.8 ± 1.6 (NS) fmol
[5]; Table 8, 10^−6 M
  cAMP formation: 92 ± 9 f-mole/5 ul of cell extract/15 min exposure to peptide

## glucagon (from UniProt P01275 53-81) (peptide)
[7]
  mean perfusate insulin concentration, perfused rat pancreas, glucagon alone at 10^-9 M: 4.98 ng/mL

## HDEFERHAEGTFTSDVSSYLEGQAAKEFIAWLVKGRG [glucagon-like peptide-1 (1-37)]
[8]
  cAMP level in RIN-38 cells, 10 min, peptide at 10^-6 M (no peptide: 91): 170
  cAMP level in RIN-38 cells, 10 min, peptide at 10^-7 M (no peptide: 91): 120
  cAMP level in RIN-38 cells, 10 min, peptide at 10^-8 M (no peptide: 91): 160
  cAMP level in RIN-38 cells, 10 min, peptide at 10^-9 M (no peptide: 91): 100
  cAMP level in RIN-38 cells, 10 min, peptide at 10^-10 M (no peptide: 91): 90
  cAMP level in RIN-38 cells, 10 min, peptide at 10^-11 M (no peptide: 91): 90

## HAEGTFTSDVSSYLEGQAAKEFIAWLVKGRG [glucagon-like peptide-1 (7-37)]
[8]
  cAMP level in RIN-38 cells, 10 min, peptide at 10^-6 M (no peptide: 140): 400
  cAMP level in RIN-38 cells, 10 min, peptide at 10^-7 M (no peptide: 140): 370
  cAMP level in RIN-38 cells, 10 min, peptide at 10^-8 M (no peptide: 140): 494
  cAMP level in RIN-38 cells, 10 min, peptide at 10^-9 M (no peptide: 140): 515
  cAMP level in RIN-38 cells, 10 min, peptide at 10^-10 M (no peptide: 140): 253
  cAMP level in RIN-38 cells, 10 min, peptide at 10^-11 M (no peptide: 140): 533
